Test results: patent US6168798A, “Non-irritating composition for treating acne and other skin conditions” (Bristol-Myers Squibb Company, priority 1997, dated 2001)

Tested on: isolated bovine corneas
Protocol: The bovine corneal opacity and permeability assay (BCOP) was used to assess the ocular irritancy of test formulations to isolated bovine corneas. Bovine corneas, obtained as a by-product from freshly slaughtered animals, were mounted in special holders and exposed to the test formulations. An in vitro score was determined for each test material based on the induction of opacity and permeability to fluorescein in the isolated bovine corneas. In these experiments, the potential ocular irritancy of the composition formulated in accordance with the invention and exemplified in Table 1 was compared with that of the commercially-available comparative product. Ocular irritancy was measured by changes in opacity and permeability to fluorescein in isolated bovine corneas. Five corneas were treated with each test material. Based on changes in corneal opacity and permeability relative to control corneas, an in vitro score was determined. […]
After a minimum of one hour of incubation, the corneal holders with the corneas in place were removed from the incubator and the medium was removed from both compartments and replaced with fresh medium. The opacity was determined for each cornea using a Spectro Design OP-KIT opacitometer. Three corneas whose opacity readings were close to the median opacity for all of the corneas were selected as the negative control corneas. […]

## CCO [ethanol (95%), ethanol]
  Irritation potential rating from in vitro score: moderate to severe
